Test results from ChEMBL document CHEMBL1142083, “Reversible inhibition of mitochondrial protein synthesis during linezolid-related hyperlactatemia” (2007).

Columns and labels:
[1] = tested on: PBMC; assay: Decrease in mitochondrial Cytochrome C oxidase 2 protein expression in PBMCs from patient on a long-term schedule of the drug with hyperlactatemia relative to control; format: functional, Homo sapiens; design: scale not given: the % may be the effect or the level left
[2] = tested on: PBMC; assay: Increase in Cytochrome C oxidase 2 mitochondrial RNA transcripts in PBMCs from patient on a long-term schedule of the drug with hyperlactatemia relative to control; format: functional, Homo sapiens
[3] = tested on: PBMC; assay: Effect on mitochondrial DNA level in PBMCs from patient on a long-term schedule of the drug with hyperlactatemia relative to control; format: functional, Homo sapiens
[4] = tested on: PBMC; assay: Effect on mitochondrial mass in PBMCs from patient during hyperlactemic phase by citrate synthase method relative to control; format: functional, Homo sapiens
[5] = tested on: PBMC; assay: Effect on mitochondrial mass in PBMCs from patient during hyperlactemic phase by V-DAC method relative to control; format: functional, Homo sapiens
[6] = tested on: PBMC; assay: Decrease in mitochondrial Cytochrome C oxidase activity in PBMCs from patient on a long-term schedule of the drug with hyperlactatemia relative to control; design: scale not given: the % may be the effect or the level left

## CC(=O)NC[C@H]1CN(c2ccc(N3CCOCC3)c(F)c2)C(=O)O1 [LINEZOLID]
[1]
  Activity: 16%
[2]
  Activity: 297%
[3]
  Activity: 82%
[4]
  Activity: 59%
[5]
  Activity: 60%
[6]
  Activity: 51%
